Test results as given in ChEMBL document CHEMBL1154660, “Synthesis of pyrrolo[2,3-d]pyrimidine derivatives and their antiproliferative activity against melanoma cell line” (Bioorg Med Chem Lett, 2009).

Assays:
[1] = Antiproliferative activity against human A375P cells after 24 hrs by MTT assay; type: functional, cell-based
HS27 = experiment: Antiproliferative activity against human HS27 cells after 24 hrs by MTT assay; type: cell-based; details: HS27, 24 h

O=C(Nc1ccc(-n2ccc3c(NC(=O)c4ccccc4)ncnc32)cc1)c1ccc(Cl)c(C(F)(F)F)c1
IC50 [1]: 2.3 µM | IC50 (HS27): 5.5 µM

CC(=O)Nc1ncnc2c1ccn2-c1ccc(NC(=O)Nc2cccc(Cl)c2Cl)cc1
IC50 [1]: > 10 µM | IC50 (HS27): > 10 µM

Nc1ncnc2c1ccn2-c1ccc(NC(=O)Nc2cc(C(F)(F)F)cc(C(F)(F)F)c2)cc1
IC50 [1]: 3 µM | IC50 (HS27): 9.5 µM

O=C(Nc1ccc(-n2ccc3c(NC(=O)c4ccccc4)ncnc32)cc1)Nc1ccc(Cl)c(C(F)(F)F)c1
IC50 [1]: 4.6 µM | IC50 (HS27): 6 µM

O=C(Nc1ccc(-n2ccc3c(NC(=O)c4ccccc4)ncnc32)cc1)c1ccc(Cl)c(Cl)c1
IC50 [1]: 2 µM | IC50 (HS27): 5 µM

Nc1ncnc2c1ccn2-c1ccc(NC(=O)Nc2ccc(Cl)c(C(F)(F)F)c2)cc1
IC50 [1]: 8.1 µM | IC50 (HS27): > 10 µM

Nc1ncnc2c1ccn2-c1ccc(NC(=O)Nc2ccc(Cl)c(Cl)c2)cc1
IC50 [1]: 5.4 µM | IC50 (HS27): 2.9 µM

CNC(=O)c1cc(Oc2ccc(NC(=O)Nc3ccc(Cl)c(C(F)(F)F)c3)cc2)ccn1 [SORAFENIB]
IC50 [1]: 5.6 µM

Nc1ncnc2c1ccn2-c1ccc(NC(=O)c2ccc(Cl)c(C(F)(F)F)c2)cc1
IC50 [1]: 2.9 µM | IC50 (HS27): 5.6 µM

O=C(Nc1ccc(-n2ccc3c(NC(=O)c4ccccc4)ncnc32)cc1)c1cc(C(F)(F)F)cc(C(F)(F)F)c1
IC50 [1]: 2 µM | IC50 (HS27): 6.6 µM

O=C(Nc1ccc(-n2ccc3c(NC(=O)c4ccccc4)ncnc32)cc1)c1ccc(N2CCOCC2)c(C(F)(F)F)c1
IC50 [1]: 0.9 µM | IC50 (HS27): 1.6 µM

O=C(Nc1ccc(-n2ccc3c(NC(=O)c4ccccc4)ncnc32)cc1)c1cccc(C(F)(F)F)c1
IC50 [1]: 4.7 µM | IC50 (HS27): 5.9 µM

CC(=O)Nc1ncnc2c1ccn2-c1ccc(NC(=O)c2ccc(Cl)c(C(F)(F)F)c2)cc1
IC50 [1]: > 10 µM | IC50 (HS27): > 10 µM

O=C(Nc1ccc(-n2ccc3c(NC(=O)c4ccccc4)ncnc32)cc1)Nc1ccc(Cl)c(Cl)c1
IC50 [1]: 4 µM | IC50 (HS27): 4.5 µM

CC(=O)Nc1ncnc2c1ccn2-c1ccc(NC(=O)Nc2ccc(Cl)c(C(F)(F)F)c2)cc1
IC50 [1]: > 10 µM | IC50 (HS27): > 10 µM

Cc1cn(-c2cc(C(=O)Nc3ccc(-n4ccc5c(NC(=O)c6ccccc6)ncnc54)cc3)cc(C(F)(F)F)c2)cn1
IC50 [1]: 0.8 µM | IC50 (HS27): 2.8 µM

Nc1ncnc2c1ccn2-c1ccc(NC(=O)c2cccc(C(F)(F)F)c2)cc1
IC50 [1]: 9.7 µM | IC50 (HS27): 7.1 µM

O=C(Nc1ccc(-n2ccc3c(NC(=O)c4ccccc4)ncnc32)cc1)Nc1cccc(C(F)(F)F)c1
IC50 [1]: 9.5 µM | IC50 (HS27): 4.5 µM

O=C(Nc1ccc(-n2ccc3c(NC(=O)c4ccccc4)ncnc32)cc1)Nc1cc(C(F)(F)F)cc(C(F)(F)F)c1
IC50 [1]: 9.8 µM | IC50 (HS27): > 10 µM

O=C(Nc1ccc(-n2ccc3c(NC(=O)c4ccccc4)ncnc32)cc1)Nc1cccc(Cl)c1Cl
IC50 [1]: 4.1 µM | IC50 (HS27): 7.8 µM
